Values quoted from earlier work in patent US20180148480A1, “[…] ENHANCEMENT OF THE T-CELL ARM[…] AN ANTI-CANCER THERAPY” (THE JOHNS HOPKINS UNIVERSITY, priority 2015, published 2018).

How the values were obtained:
animals = conditions: single intravenous dose; kills 100% of animals within 24 hrs

wild-type PA
LD100 (animals): 0.1 µg
LD50 concentration (SN12C (renal)): ≤ 50 pM
LD50 concentration (TT (thyroid)): ≤ 50 pM
LD50 concentration (TSU (bladder)): ≤ 50 pM
LD50 concentration (CWR22Rv1): ≤ 50 pM
LD50 concentration (DU145): ≤ 50 pM
LD50 concentration (LAPC-4): ≤ 50 pM
LD50 concentration (PC3): ≤ 50 pM
LD50 concentration (LNCaP): ≤ 50 pM
